Experimental data reported in patent US20030229105A1, “Treatment of autoimmune disorders” (Cyclacel Limited, priority 2002, published 2003).

Columns and labels:
PARP = assay: Immunoblot of PARP cleavage; assay type: cell-based; settings: induced ACH2 cells exposed to Roscovitine
Source text: (§1) Apoptosis and necrosis are two pathways that lead to cell death. Apoptosis is characterized by a series of morphological features, including cell shrinkage, plasma membrane blebbing, phosphatidylserine translocation to the outer leaflet of the plasma membrane, nuclear condensation, and DNA fragmentation (1). To distinguish apoptotic from necrotic cells, we performed a flow cytometry experiment using Annexin V and PI double staining. Annexin V is a sensitive probe for phosphatidylserine, and PI was used to detect membrane loss, since membrane loss leads to the accessibility of PI staining to DNA. […] At 48 h after drug treatment, most of the apoptotic cells were found at the late stage of apoptosis and not in the necrotic population (FIG. 6A). We next investigated whether the apoptotic cascade through the caspase-3 pathway was activated under drug treatment. […] Absorbances of the samples were read every 60 min in a Spectramax 250 microplate reader at 405 nm.
(§2) Cells were collected, stained with PI and FITC-Annexin V, and analyzed by FACS. […] The antigen-antibody complexes were detected using ^125I-labeled protein G. (C) Cells were washed in PBS and analyzed for caspase-3 activity using a colorimetric protease assay kit (Chemicon). […] Absorbances of samples were read every 60 min in a microplate reader at 405 nm.

[1] = test system: HIV-1 genomic, structural, and regulatory RNAs; assay: Northern blot with whole genomic HIV-1 probe in ACH2 cells; assay type: cell-based; settings: ACH2, TNF-α, then increasing concentrations (1, 10, 50 μM)
Method: At days 2, 4, and 6, the supernatants were collected, and the released HIV-1 particles were measured by using a p24 antigen ELISA assay. (B) Twenty micrograms of total RNA was separated on an RNA-formaldehyde-agarose gel, transferred, and probed with full-length labeled HIV-1 genome RNA. The hybridized genomic RNA, singly spliced (structural), and doubly spliced (regulatory) RNAs were exposed and counted by using Molecular Dynamic PhosphorImager software.

[2] = test system: HIV-1-infected ACH2 cells; assay: Annexin V and PI double staining flow cytometry; assay type: cell-based; settings: ACH2, especially with TNF-α; 10 μM, 48 h
Source text: as §1, with “6A).” for “6A). We next investigated whether the apoptotic cascade through the caspase-3 pathway was activated under drug treatment.”
as §2
Apoptosis was determined by using Annexin V and PI double staining (Annexin V-FITC; PharMingen International). […] Cells were acquired and analyzed using CELLQuest software (Becton Dickinson).

[3] = test system: U1 cells (latently HIV-1 infected); assay: Cell cycle analysis (PI staining, FACS) of HIV-1-infected U1 cells; settings: U1 cells plus TNF-α (FIG. 2C)
[4] = test system: U937 uninfected monocytic parental cell line; assay: Cell cycle analysis (PI staining, FACS) of uninfected U937 cells; settings: U937 cells (FIG. 2C)
cdk9-cyclin T complex = cdk9-cyclin T complex (Homo sapiens, UniProt P50750); assay: cdk9-cyclin T immunoprecipitate CTD kinase assay from treated cells; settings: 10 μM (FIG. 5B)
cdk6 = cdk6 (Homo sapiens, UniProt Q00534); settings: cited from earlier work
caspase-3 = assay: Caspase-3 colorimetric protease assay (DEVD-pNA) on cell lysates; assay type: cell-based; settings: induced ACH2 cells, 37° C., 3 h
Source text: Apoptosis and necrosis are two pathways that lead to cell death. Apoptosis is characterized by a series of morphological features, including cell shrinkage, plasma membrane blebbing, phosphatidylserine translocation to the outer leaflet of the plasma membrane, nuclear condensation, and DNA fragmentation (1). To distinguish apoptotic from necrotic cells, we performed a flow cytometry experiment using Annexin V and PI double staining. Annexin V is a sensitive probe for phosphatidylserine, and PI was used to detect membrane loss, since membrane loss leads to the accessibility of PI staining to DNA. […] Absorbances of the samples were read every 60 min in a Spectramax 250 microplate reader at 405 nm.
as §2
Cells were washed in PBS and analyzed for caspase-3 activity by using a CPP32/Caspase-3 Colorimetric Protease Assay Kit (Chemicon, Temecula, Calif.) according to the manufacturers' instructions. […] Protein concentrations of the lysates were determined by using the bicinchoninic acid assay reagent (Pierce, Rockford, Ill.). […]

cdk4 = cdk4 (Homo sapiens, UniProt P11802); settings: cited from earlier work
HTLV-1 = assay: p19 gag ELISA of TNF-α-treated HTLV-1-infected MT-2 cells; assay type: cell-based; settings: TNF-α 2 h, then drug, 7 days

cdk6, sequence (Q00534 whole entry): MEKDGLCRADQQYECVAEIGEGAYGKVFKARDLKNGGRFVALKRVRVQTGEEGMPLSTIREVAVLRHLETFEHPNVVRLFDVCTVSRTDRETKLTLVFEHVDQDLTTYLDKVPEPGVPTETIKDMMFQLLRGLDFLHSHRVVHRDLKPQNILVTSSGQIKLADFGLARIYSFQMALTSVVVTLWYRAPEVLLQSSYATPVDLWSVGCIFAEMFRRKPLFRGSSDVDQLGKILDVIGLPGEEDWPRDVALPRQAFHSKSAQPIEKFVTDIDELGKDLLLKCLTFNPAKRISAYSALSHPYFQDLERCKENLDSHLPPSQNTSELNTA
cdk6, sequence (P30279 whole entry partner): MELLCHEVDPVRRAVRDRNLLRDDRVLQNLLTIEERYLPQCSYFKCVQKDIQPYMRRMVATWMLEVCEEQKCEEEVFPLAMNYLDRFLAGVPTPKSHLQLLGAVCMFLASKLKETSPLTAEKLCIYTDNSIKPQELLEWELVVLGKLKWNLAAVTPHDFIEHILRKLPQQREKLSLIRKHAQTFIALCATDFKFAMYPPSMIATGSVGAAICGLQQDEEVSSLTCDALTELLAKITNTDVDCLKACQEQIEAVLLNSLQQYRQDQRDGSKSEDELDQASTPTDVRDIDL
cdk9-cyclin T complex, sequence (P50750 whole entry): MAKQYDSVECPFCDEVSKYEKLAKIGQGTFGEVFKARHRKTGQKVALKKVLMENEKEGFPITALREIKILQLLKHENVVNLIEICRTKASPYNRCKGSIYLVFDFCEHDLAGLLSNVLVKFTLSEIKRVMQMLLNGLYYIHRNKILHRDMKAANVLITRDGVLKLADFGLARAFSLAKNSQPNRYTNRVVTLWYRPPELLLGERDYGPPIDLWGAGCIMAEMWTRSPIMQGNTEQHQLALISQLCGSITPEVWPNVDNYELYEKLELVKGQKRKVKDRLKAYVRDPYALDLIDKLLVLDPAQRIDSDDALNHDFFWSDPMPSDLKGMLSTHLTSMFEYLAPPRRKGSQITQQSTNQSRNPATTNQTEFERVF
cdk9-cyclin T complex, sequence (O60563 whole entry partner): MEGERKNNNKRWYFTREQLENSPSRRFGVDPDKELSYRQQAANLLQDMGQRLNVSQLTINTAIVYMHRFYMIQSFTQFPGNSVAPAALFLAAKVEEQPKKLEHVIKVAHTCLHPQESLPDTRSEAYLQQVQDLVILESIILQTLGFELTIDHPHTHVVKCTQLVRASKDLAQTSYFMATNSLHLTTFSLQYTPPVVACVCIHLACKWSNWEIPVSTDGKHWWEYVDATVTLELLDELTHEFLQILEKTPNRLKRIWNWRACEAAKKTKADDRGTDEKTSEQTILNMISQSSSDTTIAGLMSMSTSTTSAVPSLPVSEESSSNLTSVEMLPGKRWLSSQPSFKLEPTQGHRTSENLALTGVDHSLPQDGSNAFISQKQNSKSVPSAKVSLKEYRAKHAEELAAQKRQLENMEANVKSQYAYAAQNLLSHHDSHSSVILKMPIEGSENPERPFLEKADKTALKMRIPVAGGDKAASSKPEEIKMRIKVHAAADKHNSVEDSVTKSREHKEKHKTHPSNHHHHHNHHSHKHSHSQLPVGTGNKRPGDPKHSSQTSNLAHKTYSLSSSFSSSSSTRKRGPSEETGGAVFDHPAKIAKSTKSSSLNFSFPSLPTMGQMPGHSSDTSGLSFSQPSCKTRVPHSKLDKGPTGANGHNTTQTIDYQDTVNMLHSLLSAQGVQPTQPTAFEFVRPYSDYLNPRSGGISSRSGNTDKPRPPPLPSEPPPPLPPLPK
cdk4, sequence (P11802 whole entry, species assumed): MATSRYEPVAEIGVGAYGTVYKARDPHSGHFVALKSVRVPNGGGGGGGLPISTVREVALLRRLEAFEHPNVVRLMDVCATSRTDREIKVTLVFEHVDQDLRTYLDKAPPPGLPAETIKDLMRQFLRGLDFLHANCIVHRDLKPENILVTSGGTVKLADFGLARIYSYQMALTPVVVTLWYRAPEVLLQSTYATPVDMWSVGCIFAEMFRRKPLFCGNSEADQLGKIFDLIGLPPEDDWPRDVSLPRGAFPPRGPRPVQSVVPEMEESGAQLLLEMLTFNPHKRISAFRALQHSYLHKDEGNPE
cdk4, sequence (P24385 whole entry partner, species assumed): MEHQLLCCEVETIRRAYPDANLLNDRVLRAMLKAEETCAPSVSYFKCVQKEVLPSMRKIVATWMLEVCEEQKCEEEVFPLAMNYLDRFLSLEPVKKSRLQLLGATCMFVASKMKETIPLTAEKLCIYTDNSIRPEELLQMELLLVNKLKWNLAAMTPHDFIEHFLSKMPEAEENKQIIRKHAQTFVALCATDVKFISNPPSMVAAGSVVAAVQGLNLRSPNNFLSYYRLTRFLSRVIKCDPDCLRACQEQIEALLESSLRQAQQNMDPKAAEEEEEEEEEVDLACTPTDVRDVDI

| Compound | PARP cleavage (PARP) | HIV-1 genomic, structural, and regulatory RNA levels [1] | number of apoptotic (Annexin V-stained) cells [2] | apoptosis in U1 cells [3] | apoptosis in uninfected parental cells [4] | cdk9 levels and activity on phosphorylation of RNA Pol II CTD (cdk9-cyclin T complex) | reported inhibition of cdk6 (cdk6) | caspase-3 activity increase (caspase-3) [fold] | reported inhibition of cdk4 (cdk4) | inhibition of HTLV-1 replication (p19 gag) (HTLV-1) |
| --- | --- | --- | --- | --- | --- | --- | --- | --- | --- | --- |
| Roscovitine | almost completely cleaved | dramatically decreased | remarkable increase in the number of apoptotic cells | abundance of the apoptotic population | no apparent apoptosis | decrease of cdk9 levels and its activity | not cdk4 or -6 | ~5 | not cdk4 or -6 |  |
| CC(C)[C@H](CO)Nc1nc(Nc2cccc(Cl)c2)c2ncn(C(C)C)c2n1 [Purvalanol A] |  |  |  |  |  |  |  |  |  | inhibited HTLV-1 replication |
